Source: PubChem BioAssay AID330 (DTP/NCI, 2004)
Values joined by “and” are separate entries in the source; they are usually repeats but may differ in a detail not shown here. Equal entries are not always repeated. Toxic doses and inconclusive results are not listed.

Tested on: P388 leukemia ip, CD2F1 mice, survival T/C
Assay: NCI In Vivo Anticancer Drug Screen. Data for tumor model P388 Leukemia (intraperitoneal) in CD2F1 (CDF1) mice
Conditions: endpoint: median survival time, higher = longer survival
Method in brief: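 Mice carrying the transplanted tumor received test compound or vehicle. Survival was recorded in each group, and the value is the treated-group measurement divided by that of the vehicle-treated control group.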

[1] = dose: 12.5 mg/kg/injection, schedule: Q04DX002 (ip), vehicle: saline with Tween-80
[2] = dose: 60.0 mg/kg/injection, schedule: Q01DX005 (ip), vehicle: saline with Tween-80
[3] = dose: 120.0 mg/kg/injection, schedule: Q01DX005 (ip), vehicle: saline with Tween-80
[4] = dose: 240.0 mg/kg/injection, schedule: Q01DX005 (ip), vehicle: saline with Tween-80
[5] = dose: 50.0 mg/kg/injection, schedule: Q01DX005 (ip), vehicle: saline with Tween-80
[6] = dose: 100.0 mg/kg/injection, schedule: Q01DX005 (ip), vehicle: saline with Tween-80
[7] = dose: 200.0 mg/kg/injection, schedule: Q01DX005 (ip), vehicle: saline with Tween-80
[8] = dose: 100.0 mg/kg/injection, schedule: Q01DX001 (ip), vehicle: saline
[9] = dose: 200.0 mg/kg/injection, schedule: Q01DX001 (ip), vehicle: saline
[10] = dose: 400.0 mg/kg/injection, schedule: Q01DX001 (ip), vehicle: saline

For CNCCC(Oc1ccccc1OC)c1ccccc1 (stereo unspecified), the T/C [1] was 106 % of control, the T/C (dose: 25.0 mg/kg/injection, schedule: Q04DX002 (ip), vehicle: saline with Tween-80) was 100 % of control and the T/C (dose: 25.0 mg/kg/injection, schedule: Q04DX002 (ip), vehicle: saline) was 113 % of control. The T/C (dose: 50.0 mg/kg/injection, schedule: Q04DX002 (ip), vehicle: saline with Tween-80) was 99 % of control and 98 % of control and the T/C (dose: 50.0 mg/kg/injection, schedule: Q04DX002 (ip), vehicle: saline) was 103 % of control.

With COC1=CC(=O)/C(=C(O)/C=C/c2ccccc2)C(=O)C1(C)C the T/C [2] was 108 % of control, the T/C [3] was 115 % of control and the T/C [4] was 123 % of control.

For CCC/C=C/C1SCC(=O)N1c1nncs1 (stereo unspecified), the T/C [5] was 102 % of control, the T/C [6] was 103 % of control and the T/C [7] was 117 % of control.

CC1(C)OC2OC(COC(=O)c3ccccc3)C(=O)C2O1 (stereo unspecified) was tested, and the T/C (dose: 3.13 mg/kg/injection, schedule: Q01DX009 (ip), vehicle: saline with Tween-80) was 95 % of control, the T/C (dose: 6.25 mg/kg/injection, schedule: Q01DX009 (ip), vehicle: saline with Tween-80) was 93 % of control and the T/C (dose: 12.5 mg/kg/injection, schedule: Q01DX009 (ip), vehicle: saline with Tween-80) was 89 % of control.

In the case of COC(=O)c1cc(C)c(NC(C)=O)cc1C, the T/C (dose: 12.5 mg/kg/injection, schedule: Q01DX009 (ip), vehicle: distilled water + Tween-80) is reported as 100 % of control, the T/C (dose: 25.0 mg/kg/injection, schedule: Q01DX009 (ip), vehicle: distilled water + Tween-80) is reported as 98 % of control and the T/C (dose: 50.0 mg/kg/injection, schedule: Q01DX009 (ip), vehicle: distilled water + Tween-80) is reported as 90 % of control. For the same compound, the T/C (dose: 100.0 mg/kg/injection, schedule: Q01DX009 (ip), vehicle: distilled water + Tween-80) was 98 % of control and the T/C (dose: 200.0 mg/kg/injection, schedule: Q01DX009 (ip), vehicle: distilled water + Tween-80) was 89 % of control.

For CC(C)=CCC(OC1OC(CO)C(O)C(O)C1N)C1=CC(=O)c2c(O)ccc(O)c2C1=O (stereo unspecified), the T/C (dose: 2.5 mg/kg/injection, schedule: Q04DX002 (ip), vehicle: saline) was 103 % of control, the T/C (dose: 5.0 mg/kg/injection, schedule: Q04DX002 (ip), vehicle: saline) was 111 % of control and the T/C (dose: 10.0 mg/kg/injection, schedule: Q04DX002 (ip), vehicle: saline) was 114 % of control. The T/C (dose: 20.0 mg/kg/injection, schedule: Q04DX002 (ip), vehicle: saline) was 113 % of control and the T/C (dose: 40.0 mg/kg/injection, schedule: Q04DX002 (ip), vehicle: saline) was 111 % of control.

With CNNC(=O)OC the T/C (dose: 25.0 mg/kg/injection, schedule: Q01DX002 (ip), vehicle: saline) was 101 % of control, the T/C (dose: 50.0 mg/kg/injection, schedule: Q01DX002 (ip), vehicle: saline) was 102 % of control and the T/C (dose: 100.0 mg/kg/injection, schedule: Q01DX002 (ip), vehicle: saline) was 120 % of control.

With NC(=O)CCCSC1=CC(=O)c2ccccc2C1=O the T/C (dose: 3.12 mg/kg/injection, schedule: Q04DX002 (ip), vehicle: saline with Tween-80) was 104 % of control, the T/C (dose: 6.25 mg/kg/injection, schedule: Q04DX002 (ip), vehicle: saline with Tween-80) was 101 % of control and the T/C [1] was 111 % of control and 114 % of control.

With CNC(=O)OCc1c(COC(=O)NC)c(-c2ccc(Cl)c(Cl)c2)n2c1CCC2 the T/C (dose: 12.5 mg/kg/injection, schedule: Q01DX009 (ip), vehicle: Klucel (hydroxypropylcellulose) (HPC)) was 153 % of control, the T/C (dose: 25.0 mg/kg/injection, schedule: Q01DX009 (ip), vehicle: Klucel (hydroxypropylcellulose) (HPC)) was 160 % of control and the T/C (dose: 50.0 mg/kg/injection, schedule: Q01DX009 (ip), vehicle: Klucel (hydroxypropylcellulose) (HPC)) was 155 % of control. For the same compound, the T/C (dose: 100.0 mg/kg/injection, schedule: Q01DX009 (ip), vehicle: Klucel (hydroxypropylcellulose) (HPC)) was 188 % of control.

With Oc1cc(O)cc(/C=C/c2ccc(O)cc2O)c1 the T/C (dose: 2.0 mg/kg/injection, schedule: Q01DX009 (ip), vehicle: Klucel (hydroxypropylcellulose) (HPC)) was 102 % of control, the T/C (dose: 4.0 mg/kg/injection, schedule: Q01DX009 (ip), vehicle: Klucel (hydroxypropylcellulose) (HPC)) was 105 % of control and the T/C (dose: 8.0 mg/kg/injection, schedule: Q01DX009 (ip), vehicle: Klucel (hydroxypropylcellulose) (HPC)) was 101 % of control. For the same compound, the T/C (dose: 16.0 mg/kg/injection, schedule: Q01DX009 (ip), vehicle: Klucel (hydroxypropylcellulose) (HPC)) was 94 % of control and the T/C (dose: 32.0 mg/kg/injection, schedule: Q01DX009 (ip), vehicle: Klucel (hydroxypropylcellulose) (HPC)) was 101 % of control.

With Cc1ccccc1S(=O)(=O)F the T/C (dose: 25.0 mg/kg/injection, schedule: Q01DX009 (ip), vehicle: saline with Tween-80) was 100 % of control, the T/C (dose: 25.0 mg/kg/injection, schedule: Q04DX003 (ip), vehicle: saline with Tween-80) was 100 % of control and the T/C (dose: 50.0 mg/kg/injection, schedule: Q01DX009 (ip), vehicle: saline with Tween-80) was 100 % of control. The T/C (dose: 50.0 mg/kg/injection, schedule: Q04DX003 (ip), vehicle: saline with Tween-80) was 100 % of control, the T/C (dose: 100.0 mg/kg/injection, schedule: Q01DX009 (ip), vehicle: saline with Tween-80) was 109 % of control and the T/C (dose: 100.0 mg/kg/injection, schedule: Q04DX003 (ip), vehicle: saline with Tween-80) was 100 % of control.

In the case of CCN(CC)P(c1ccccc1)N(CC)CC, the T/C [8] is reported as 101 % of control, the T/C [9] is reported as 111 % of control and the T/C [10] is reported as 104 % of control.

For CC(Oc1cc(Cl)c(Cl)cc1Cl)C(=O)NC(C(=O)O)C(C)C (stereo unspecified), the T/C [5] was 97 % of control and 100 % of control, the T/C [6] was 91 % of control and 106 % of control and the T/C [7] was 97 % of control and 111 % of control.

In the case of N=c1oc2ccccc2cc1C(=O)NNC(=O)c1ccncc1, the T/C [8] is reported as 96 % of control, the T/C [9] is reported as 96 % of control and the T/C [10] is reported as 102 % of control.

CC(C)C(N)C(=O)NN (stereo unspecified) was tested, and the T/C (dose: 50.0 mg/kg/injection, schedule: Q01DX005 (ip), vehicle: saline) was 110 % of control, the T/C (dose: 100.0 mg/kg/injection, schedule: Q01DX005 (ip), vehicle: saline) was 105 % of control and the T/C (dose: 200.0 mg/kg/injection, schedule: Q01DX005 (ip), vehicle: saline) was 110 % of control.

With CCC1C[N+]2=C(c3cc(OC)c(OC)cc3CC2)c2c1cc1n2CCc2cc(OC)c(OC)cc2-1 (stereo unspecified) the T/C (dose: 0.75 mg/kg/injection, schedule: Q01DX005 (ip), vehicle: saline with Tween-80) was 101 % of control, the T/C (dose: 1.5 mg/kg/injection, schedule: Q01DX005 (ip), vehicle: saline with Tween-80) was 109 % of control and the T/C (dose: 3.0 mg/kg/injection, schedule: Q01DX005 (ip), vehicle: saline with Tween-80) was 117 % of control. For the same compound, the T/C (dose: 3.12 mg/kg/injection, schedule: Q01DX005 (ip), vehicle: saline with Tween-80) was 111 % of control, the T/C (dose: 6.25 mg/kg/injection, schedule: Q01DX005 (ip), vehicle: saline with Tween-80) was 109 % of control and the T/C (dose: 12.5 mg/kg/injection, schedule: Q01DX005 (ip), vehicle: saline with Tween-80) was 114 % of control.

With C=CC(C)C(O)C(=O)OC (stereo unspecified) the T/C (dose: 100.0 mg/kg/injection, schedule: Q01DX001 (ip), vehicle: saline with Tween-80) was 98 % of control, the T/C (dose: 200.0 mg/kg/injection, schedule: Q01DX001 (ip), vehicle: saline with Tween-80) was 110 % of control and the T/C (dose: 400.0 mg/kg/injection, schedule: Q01DX001 (ip), vehicle: saline with Tween-80) was 103 % of control.

With COc1cc(C(CC(C)=O)c2cc3c(cc2OC(C)=O)OCO3)cc(OC)c1OC (stereo unspecified) (tested in a mixture with another compound) the T/C (dose: 30.0 mg/kg/injection, schedule: Q01DX005 (ip), vehicle: saline with Tween-80) was 99 % of control, the T/C [2] was 102 % of control and 122 % of control and the T/C [3] was 118 % of control. The T/C [4] was 162 % of control and 188 % of control.

Cc1ccc(S(=O)(=O)N(CCCc2c(Cl)nc(N)nc2-c2ccccc2)c2ccccc2)cc1 was tested, and the T/C [2] was 87 % of control, the T/C [3] was 87 % of control and the T/C [4] was 89 % of control.

O=C1NC(=O)C2(CCC(O)C2)c2ccncc21 (stereo unspecified) was tested, and the T/C (dose: 0.12 mg/kg/injection, schedule: Q01DX009 (ip), vehicle: saline + Tween-80 + alcohol) was 103 % of control, the T/C (dose: 0.25 mg/kg/injection, schedule: Q01DX009 (ip), vehicle: saline + Tween-80 + alcohol) was 100 % of control and the T/C (dose: 0.5 mg/kg/injection, schedule: Q01DX009 (ip), vehicle: saline + Tween-80 + alcohol) was 103 % of control. The T/C (dose: 1.0 mg/kg/injection, schedule: Q01DX009 (ip), vehicle: saline + Tween-80 + alcohol) was 100 % of control and 120 % of control and the T/C (dose: 1.4 mg/kg/injection, schedule: Q01DX009 (ip), vehicle: saline + Tween-80 + alcohol) was 117 % of control.

With CCOC(=O)C1=C(C)NC(=O)NC1c1ccc(N(C)C)cc1 (stereo unspecified) the T/C (dose: 50.0 mg/kg/injection, schedule: Q01DX005 (ip), vehicle: Klucel (hydroxypropylcellulose) (HPC)) was 90 % of control, the T/C (dose: 100.0 mg/kg/injection, schedule: Q01DX005 (ip), vehicle: Klucel (hydroxypropylcellulose) (HPC)) was 95 % of control and the T/C (dose: 200.0 mg/kg/injection, schedule: Q01DX005 (ip), vehicle: Klucel (hydroxypropylcellulose) (HPC)) was 97 % of control.
